Reference: the supplement of paper PMC10307832

What was measured:
Assay in all cases: relative viability (nuclei count vs DMSO), 5 days (fraction); higher = more cells survive
[1] = compound: O[C@@H](COc1cccc2ncccc12)CN1CCN([C@@H]2c3ccccc3[C@@H]3[C@H](c4ccccc42)C3(F)F)CC1 [Zosuquidar] + Nc1nc2[nH]cc(CCc3ccc(C(=O)N[C@@H](CCC(=O)O)C(=O)O)cc3)c2c(=O)[nH]1 [Pemetrexed] (partner 0.2 µM)
In short: (§1)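 Medians of duplicate plates are given as relative viability. That measure is the nuclei count in treated wells divided by the count in vehicle wells. Counts were taken on 4× images of lung cancer cell lines in 1536-well plates, 5 days after pin-tool dosing the day after seeding with one drug alone or a fixed anchor-drug dose plus five library-drug doses (not always all listed) in √10 steps.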

[2] = compound: COc1cc2nccc(Oc3ccc(NC(=O)C4(C(=O)Nc5ccc(F)cc5)CC4)cc3)c2cc1OC [Cabozantinib] + CC(=O)c1c(C)c2cnc(Nc3ccc(N4CCNCC4)cn3)nc2n(C2CCCC2)c1=O [Palbociclib] (partner 0.5 µM)
In short: as §1

[3] = compound: C1=CC(=CC=C1NC(=S)NNC2=C(C=C(C=C2[N+](=O)[O-])C(F)(F)F)[N+](=O)[O-])F [Kobe2602] + CC1(C)CCC(c2ccc(Cl)cc2)=C(CN2CCN(c3ccc(C(=O)NS(=O)(=O)c4ccc(N[C@H](CCN5CCOCC5)CSc5ccccc5)c(S(=O)(=O)C(F)(F)F)c4)cc3)CC2)C1 [Navitoclax] (partner 0.5 µM)
In short: as §1

[4] = compound: COc1cc2nccc(Oc3ccc(NC(=O)C4(C(=O)Nc5ccc(F)cc5)CC4)cc3)c2cc1OC [Cabozantinib] + CC1(C)CCC(c2ccc(Cl)cc2)=C(CN2CCN(c3ccc(C(=O)NS(=O)(=O)c4ccc(N[C@H](CCN5CCOCC5)CSc5ccccc5)c(S(=O)(=O)C(F)(F)F)c4)cc3)CC2)C1 [Navitoclax] (partner 0.5 µM)
In short: as §1

Cell Line | relative viability ([1]; first compound 0.01 µM) | relative viability ([1]; first compound 0.03162 µM) | relative viability ([1]; first compound 0.1 µM) | relative viability ([1]; first compound 0.3162 µM) | relative viability ([1]; first compound 1 µM) | relative viability ([2]; first compound 0.02 µM) | relative viability ([2]; first compound 0.06325 µM) | relative viability ([2]; first compound 0.2 µM) | relative viability ([2]; first compound 0.6325 µM) | relative viability ([2]; first compound 2 µM) | relative viability ([3]; first compound 0.2 µM) | relative viability ([3]; first compound 0.6325 µM) | relative viability ([3]; first compound 2 µM) | relative viability ([3]; first compound 6.325 µM) | relative viability ([3]; first compound 20 µM) | relative viability ([4]; first compound 0.02 µM) | relative viability ([4]; first compound 0.06325 µM) | relative viability ([4]; first compound 0.2 µM) | relative viability ([4]; first compound 0.6325 µM) | relative viability ([4]; first compound 2 µM)
201T | 0.315 | 0.334 | 0.35 | 0.322 | 0.334 | 0.352 | 0.342 | 0.332 | 0.371 | 0.384 | 1.23 | 1.18 | 1.18 | 1.3 | 1.29 | 1.2 | 1.25 | 1.19 | 1.2 | 1.24
HCC-827 | 0.237 | 0.272 | 0.255 | 0.263 | 0.279 | 0.415 | 0.535 | – | 0.577 | 0.399 | 0.987 | 1.13 | 1.06 | 1.03 | 0.981 | 1.05 | 1.07 | – | 1.05 | 0.981
NCI-H1975 | 0.279 | 0.299 | 0.293 | 0.272 | 0.29 | 0.533 | 0.777 | 0.647 | 0.418 | 0.557 | 1.08 | 0.955 | 0.968 | 1.1 | 0.928 | 1.25 | 1.09 | 1.22 | 1.01 | 1.05
NCI-H2023 | 0.224 | 0.233 | 0.212 | 0.302 | 0.297 | 0.386 | 0.321 | 0.271 | 0.247 | 0.199 | 0.976 | 1.11 | 0.892 | 0.927 | 0.917 | 1.07 | 1.05 | 0.931 | 0.872 | 0.691
ChaGo-K-1 | 0.266 | 0.255 | 0.263 | 0.266 | 0.26 | 1.05 | 1.05 | 0.906 | 0.899 | 0.871 | 1.12 | 1.26 | 1.02 | 1.05 | 0.933 | 0.823 | 1.28 | 0.972 | 0.562 | 1.04
COR-L 105 | 1.27 | 1.01 | 1.18 | 1.1 | 1.16 | 0.409 | 0.4 | 0.378 | 0.411 | 0.413 | 0.525 | 0.756 | 0.786 | 0.909 | 0.784 | 0.789 | 0.771 | – | 0.657 | 0.743
SK-MES-1 | 0.957 | 0.952 | 0.85 | 1.07 | 1.04 | 0.34 | 0.305 | 0.379 | 0.39 | 0.298 | 1.14 | 1.23 | 1.09 | 1.19 | 1.23 | 1.28 | 1.24 | 1.22 | 1.23 | 1.19
NCI-H23 | 0.601 | – | 0.612 | 0.843 | 0.657 | – | 0.541 | 0.579 | 0.541 | 0.437 | 0.744 | 0.741 | 0.97 | 0.679 | 0.993 | – | 0.913 | 0.972 | 0.71 | 0.644
NCI-H1993 | 0.578 | 0.624 | – | 0.642 | 0.636 | 0.661 | 0.537 | 0.461 | 0.571 | 0.437 | 0.678 | 0.707 | 0.787 | 0.687 | 0.729 | 0.934 | 0.901 | 0.857 | 0.851 | 0.991
NCI-H460 | 0.0576 | 0.0545 | 0.0685 | 0.0617 | 0.0615 | 0.168 | 0.243 | 0.245 | 0.187 | 0.165 | 1.12 | 1.16 | 1.19 | 1.1 | 1.06 | 1.46 | 1.39 | 1.09 | 1.11 | 1.24
NCI-H3122 | 0.19 | 0.188 | 0.192 | 0.19 | 0.204 | 0.183 | 0.179 | 0.168 | 0.192 | 0.211 | 1.05 | 0.971 | 1.02 | 1.02 | 1.03 | 0.988 | 1.03 | 0.987 | 1.03 | 1.02
HCC-44 | 0.613 | 0.708 | 0.663 | 0.618 | 0.632 | 1.04 | 1.05 | 0.998 | 0.977 | 1.03 | 0.989 | 0.998 | 0.928 | 0.963 | 1.02 | 1.01 | 1.1 | 1.02 | 1.07 | 0.965
HCC-78 | 0.92 | – | – | 0.906 | 0.827 | – | 0.444 | 0.413 | 0.467 | 0.435 | 0.761 | 0.893 | – | 0.78 | 0.91 | 0.71 | 0.682 | 0.307 | 0.224 | 0.186
COR-L23 | 0.222 | 0.188 | 0.201 | 0.198 | 0.189 | 0.299 | 0.295 | 0.29 | 0.391 | 0.297 | 0.951 | 1.01 | 1.02 | 1.06 | 0.938 | 1.07 | 1.16 | 1.03 | 0.973 | 0.931
NCI-H2009 | 1.04 | 1.04 | 1.01 | 0.902 | 1.06 | 0.209 | 0.25 | 0.269 | 0.277 | 0.141 | 1.19 | 1.25 | 1.14 | 1.19 | 1.14 | 1.25 | 1.19 | 1.21 | 1.18 | 1.2
